The text below walks through data of US9187472B2 (AbbVie Inc., priority 2012, dated 2015).

One test relates to activated T cells. The settings on record: Busso et al. 2008; cited from earlier work.
The subject of test [1] is collagen induced arthritis. The conditions noted are these: Busso et al. 2008; cited from earlier work.
Test [2] has as its system experimental autoimmune encephalomyelitis (EAE). The conditions noted are these: model of T-cell mediated autoimmune disorders, Bruzzone et al. 2009; cited from earlier work.
For test [3], the target named is NAMPT (human, recombinant, C-terminally His-tagged) (Homo sapiens, UniProt P43490). In words: Time-Resolved Fluorescence Resonance Energy Transfer (TR-FRET) Binding Assay of NAMPT. The settings on record: without substrates; 6.8 nM NAMPT, 200 nM probe, 3 hours equilibration. The procedure, abridged:
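Competitive binding against an Oregon Green 488 tracer (200 nM), 6.8 nM His-tagged enzyme, 1 nM Tb antibody, 2% DMSO, 3 h at RT. IC50 derived from TR-FRET ratios.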
(TR-FRET usually uses a lanthanide donor and a delayed reading to cut background.)

In another test the target is NAMPT (Homo sapiens, UniProt P43490). In words: TR-FRET Binding Assay of NAMPT with PRPP. The conditions noted are these: with 200 μM PRPP and 2.5 mM ATP; 2 nM NAMPT, 2 nM probe, 16 hours equilibration. The method in brief: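 Read-out is TR-FRET after a 16 h equilibration allowing possible compound modification by the enzyme. Final mix: 2 nM NAMPT, 2 nM probe, 1 nM Tb-anti-His antibody, 200 μM PRPP, 2.5 mM ATP, 2% DMSO.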
Chain of NAMPT (P43490 whole entry): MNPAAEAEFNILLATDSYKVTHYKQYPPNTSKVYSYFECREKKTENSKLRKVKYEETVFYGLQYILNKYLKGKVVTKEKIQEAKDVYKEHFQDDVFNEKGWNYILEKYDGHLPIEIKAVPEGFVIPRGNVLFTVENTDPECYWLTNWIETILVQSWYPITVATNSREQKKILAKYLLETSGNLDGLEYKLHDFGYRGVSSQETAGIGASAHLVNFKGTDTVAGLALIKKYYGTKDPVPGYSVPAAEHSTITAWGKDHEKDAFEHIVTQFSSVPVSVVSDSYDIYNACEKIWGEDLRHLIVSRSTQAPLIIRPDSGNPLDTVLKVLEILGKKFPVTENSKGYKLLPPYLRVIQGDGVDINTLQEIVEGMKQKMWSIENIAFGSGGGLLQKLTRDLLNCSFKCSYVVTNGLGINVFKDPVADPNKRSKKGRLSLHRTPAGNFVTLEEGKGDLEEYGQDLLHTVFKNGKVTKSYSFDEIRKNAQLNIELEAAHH

Another test has as its system PC3 cells. Briefly: NAMPT Cell Proliferation Assay. It is filed as cell-based. The conditions noted are these: Homo sapiens, PC-3, 120 h, 5 days incubation, cell viability by Cell Titer Glo. The procedure, abridged: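 PC3 cells were plated at 500 cells/well in RPMI with 10% heat-inactivated FBS, left to attach overnight, then given compounds in 10-fold dilutions from 10 μM to 1×10^−5 μM. After 5 days at 37° C and 5% CO2, viability was read by luminescence and IC50s came from sigmoidal fits of percent inhibition.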

Chain of NAMPT (human, recombinant, C-terminally His-tagged) (P43490 whole entry): as above

For the compound `O=C(/C=C/c1cccnc1)NCCCCC1CCN(C(=O)c2ccccc2)CC1` [FK866], in the test on activated T cells, the “apoptosis of activated T cells” value was “induce apoptosis” and the “proliferation of activated T cells” value is “selectively block proliferation”. In addition, the “efficacy in animal models of arthritis” value in test [1] is recorded as “efficacious”. The “manifestations of experimental autoimmune encephalomyelitis” value in test [2] was “ameliorated the manifestations”.

A word on the IC50: it is the midpoint of a concentration-inhibition curve. In the case of `CC(C)(C)OC(=O)N1CC=C(c2ccc(NC(=O)NCc3ccn4ccnc4c3)c(F)c2)CC1` [Example 290, tert-butyl 4-(3-fluoro-4-{[(imidazo[1,2-a]pyridin-7-ylmethyl)carbamoyl]amino}phenyl)-3,6-dihydropyridine-1(2H)-carboxylate], the figures for the half-maximal inhibitory concentration (IC50) (in test [3]; at NAMPT; in the test with PC3 cells) were 415 nM, 0.96 nM and 72.2 nM, respectively.

As to `O=C(NCc1ccc2nccn2c1)c1cnc(N(CC2CCCO2)C(=O)CCc2cnoc2)s1` (stereo not shown) [Example 135, N-(imidazo[1,2-a]pyridin-6-ylmethyl)-2-{[3-(1,2-oxazol-4-yl)propanoyl](tetrahydrofuran-2-ylmethyl)amino}-1,3-thiazole-5-carboxamide], the 50% inhibitory concentration (IC50) came out at 73.8 nM in test [3], 1.27 nM on NAMPT and 6.36 nM in the test with PC3 cells.
